These results are taken from ChEMBL document CHEMBL2029234, “Sulfonyl-morpholino-pyrimidines: SAR and development of a novel class of selective mTOR kinase inhibitor” (Bioorg Med Chem Lett, 2012).

A word on the IC50: it is the concentration needed to halve the response being measured. One may read the fraction unbound as the share of the substance not bound to proteins or other matrix. The clearance is a measure of how efficiently the substance is removed, as volume per time. Low values mean a low capacity for elimination, high ones a high capacity for elimination. In general, bioavailability refers to the share of a dose that reaches the circulation, judged against a reference dose that is usually intravenous. A higher bioavailability goes with good availability. Broadly, the logD is lipophilicity at a set pH, counting ionised and neutral species. High values mean higher lipophilicity, low ones lower lipophilicity. By solubility is commonly meant how much of the substance goes into solution per volume. Read a high solubility as much dissolved substance. The term Vd denotes a proportionality between amount in the body and measured concentration, not a real space. As a reminder, the Papp A→B is the apparent permeability from the apical to the basolateral side of a cell layer. For orientation: Papp B→A means how fast a substance crosses the layer from the basolateral side.

Data set [1] has as its target Serine/threonine-protein kinase mTOR (Homo sapiens, UniProt P42345). The data set can be described thus: Inhibition of recombinant FLAG-tagged mTOR kinase expressed in HEK293 cells using Biotin-Ahx-Lys-Lys-Ala-Asn-Gln-Val-Phe-Leu-Gly-Phe-Thr-Tyr-Val-Ala-Pro-Ser-Val-Leu-Glu-Ser-Val-Lys-Glu-NH2 as substrate after 90 mins.
Data set [2] addresses Phosphatidylinositol 4,5-bisphosphate 3-kinase catalytic subunit alpha isoform (Homo sapiens, UniProt P42336). The data set can be described thus: Inhibition of human recombinant PI3Kalpha expressed in baculovirus system using PI(4,5)P2 as substrate after 20 mins.
A short description of data set [3]: Inhibition of Akt Ser473 phosphorylation in human MDA-MB-468 cells after 2 hrs. The note with it: MDA-MB-468, 2 h. It counts as cell-based.
Data set [4] can be described thus: Fraction unbound in rat plasma. In kind it is ADME, cell-free.
Data set [5] is described as follows: Plasma clearance in iv dosed rat. In kind it is ADME, organism-based.
The nature of data set [6]: Oral bioavailability in rat. In kind it is ADME, organism-based. The note with it: in vivo.
Data set [7] in a line: Inhibition of Cytochrome P450. In kind it is ADME.
The nature of data set [8]: physchem. The note with it: buffer, pH 7.4.
Data set [9] addresses Voltage-gated inwardly rectifying potassium channel KCNH2 (Homo sapiens, UniProt Q12809).
The nature of data set [10]: physchem. The note with it: aqueous, pH 7.4.
In data set [11] the target is Cytochrome P450 2C9 (Homo sapiens, UniProt P11712). The experiment in a line: Inhibition of CYP2C9. In kind it is ADME.
Data set [12] is described as follows: Volume of distribution in iv dosed rat. It counts as ADME, organism-based. The note with it: in vivo.
Data set [13] in a line: Apparent permeability from apical to basal side of MDCK cells. It counts as ADME, cell-based, Canis lupus familiaris. The note with it: dog.
The nature of data set [14]: Apparent permeability from basal to apical side of MDCK cells. The note with it: dog. In kind it is ADME, cell-based, Canis lupus familiaris.

Values after ≈ are worked out from the molar mass of the structure shown.

Phosphatidylinositol 4,5-bisphosphate 3-kinase catalytic subunit alpha isoform, sequence (P42336 whole entry, canonical isoform): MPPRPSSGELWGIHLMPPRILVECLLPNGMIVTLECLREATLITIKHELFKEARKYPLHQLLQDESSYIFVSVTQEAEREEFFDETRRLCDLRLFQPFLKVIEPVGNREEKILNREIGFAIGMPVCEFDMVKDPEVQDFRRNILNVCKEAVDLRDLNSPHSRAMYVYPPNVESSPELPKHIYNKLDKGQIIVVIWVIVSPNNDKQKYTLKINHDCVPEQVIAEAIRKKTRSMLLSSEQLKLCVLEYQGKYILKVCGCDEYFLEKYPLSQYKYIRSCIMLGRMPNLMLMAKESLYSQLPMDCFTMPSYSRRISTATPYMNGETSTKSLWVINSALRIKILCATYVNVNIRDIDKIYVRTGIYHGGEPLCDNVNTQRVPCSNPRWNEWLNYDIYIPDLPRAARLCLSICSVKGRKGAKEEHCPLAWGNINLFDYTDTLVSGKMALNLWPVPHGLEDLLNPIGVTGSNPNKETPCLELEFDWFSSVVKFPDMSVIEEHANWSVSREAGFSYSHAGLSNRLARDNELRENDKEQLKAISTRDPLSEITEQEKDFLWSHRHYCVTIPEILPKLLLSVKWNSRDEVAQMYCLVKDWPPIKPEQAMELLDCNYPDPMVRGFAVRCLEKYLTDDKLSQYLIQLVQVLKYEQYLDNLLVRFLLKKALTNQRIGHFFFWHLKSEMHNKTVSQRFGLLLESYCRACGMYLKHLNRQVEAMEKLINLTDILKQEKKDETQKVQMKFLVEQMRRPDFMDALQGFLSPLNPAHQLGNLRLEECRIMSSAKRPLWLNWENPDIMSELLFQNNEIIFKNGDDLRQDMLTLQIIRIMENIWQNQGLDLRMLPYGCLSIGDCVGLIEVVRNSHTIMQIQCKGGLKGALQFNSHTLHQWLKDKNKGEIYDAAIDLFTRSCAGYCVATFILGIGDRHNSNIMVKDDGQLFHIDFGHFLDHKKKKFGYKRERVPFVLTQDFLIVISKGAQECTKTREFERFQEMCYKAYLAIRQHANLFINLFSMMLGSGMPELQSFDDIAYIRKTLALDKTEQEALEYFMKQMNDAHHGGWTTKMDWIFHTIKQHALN
Voltage-gated inwardly rectifying potassium channel KCNH2, sequence (Q12809 whole entry): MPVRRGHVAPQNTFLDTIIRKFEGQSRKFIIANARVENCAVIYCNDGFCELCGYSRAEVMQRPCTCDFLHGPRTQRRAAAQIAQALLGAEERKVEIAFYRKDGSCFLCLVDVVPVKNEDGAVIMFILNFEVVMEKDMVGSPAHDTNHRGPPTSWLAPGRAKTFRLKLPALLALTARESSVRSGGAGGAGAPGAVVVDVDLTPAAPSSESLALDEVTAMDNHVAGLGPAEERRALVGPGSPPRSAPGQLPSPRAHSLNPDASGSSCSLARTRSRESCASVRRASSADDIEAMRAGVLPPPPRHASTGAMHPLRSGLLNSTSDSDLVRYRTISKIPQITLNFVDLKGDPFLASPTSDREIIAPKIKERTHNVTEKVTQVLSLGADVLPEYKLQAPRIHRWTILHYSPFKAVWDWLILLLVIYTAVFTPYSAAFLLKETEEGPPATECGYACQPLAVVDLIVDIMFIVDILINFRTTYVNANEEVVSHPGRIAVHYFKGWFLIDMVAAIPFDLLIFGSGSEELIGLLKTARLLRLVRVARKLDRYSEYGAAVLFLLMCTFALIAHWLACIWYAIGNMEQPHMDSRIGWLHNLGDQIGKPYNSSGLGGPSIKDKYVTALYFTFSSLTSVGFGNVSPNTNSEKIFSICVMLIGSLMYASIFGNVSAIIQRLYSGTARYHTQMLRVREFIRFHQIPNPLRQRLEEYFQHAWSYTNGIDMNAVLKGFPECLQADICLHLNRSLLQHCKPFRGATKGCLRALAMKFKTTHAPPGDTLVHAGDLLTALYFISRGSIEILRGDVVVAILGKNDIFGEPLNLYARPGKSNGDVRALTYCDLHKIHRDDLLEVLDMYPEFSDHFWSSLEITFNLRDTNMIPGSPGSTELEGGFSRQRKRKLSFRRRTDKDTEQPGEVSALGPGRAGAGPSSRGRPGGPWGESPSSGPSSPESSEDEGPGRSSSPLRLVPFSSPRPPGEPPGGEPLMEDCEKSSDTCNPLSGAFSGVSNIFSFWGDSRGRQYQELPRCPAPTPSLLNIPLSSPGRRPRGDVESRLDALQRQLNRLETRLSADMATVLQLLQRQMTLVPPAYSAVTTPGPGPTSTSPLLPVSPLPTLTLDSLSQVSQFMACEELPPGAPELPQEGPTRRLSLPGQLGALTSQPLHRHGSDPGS
Cytochrome P450 2C9, sequence (P11712 whole entry): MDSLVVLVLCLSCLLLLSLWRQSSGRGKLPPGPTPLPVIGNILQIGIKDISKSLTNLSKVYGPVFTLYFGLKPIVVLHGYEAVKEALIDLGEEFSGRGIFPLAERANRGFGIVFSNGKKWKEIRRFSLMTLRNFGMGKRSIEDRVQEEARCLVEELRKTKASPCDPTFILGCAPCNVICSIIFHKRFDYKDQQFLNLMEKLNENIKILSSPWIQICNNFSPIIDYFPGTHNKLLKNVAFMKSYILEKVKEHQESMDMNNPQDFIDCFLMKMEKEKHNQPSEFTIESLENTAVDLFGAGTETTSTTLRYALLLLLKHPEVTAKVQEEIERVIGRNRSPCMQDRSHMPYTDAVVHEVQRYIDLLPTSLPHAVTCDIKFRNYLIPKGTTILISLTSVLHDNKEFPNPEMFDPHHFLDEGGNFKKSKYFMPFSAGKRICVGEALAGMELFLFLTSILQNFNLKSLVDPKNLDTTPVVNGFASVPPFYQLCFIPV

With `CS(=O)(=O)Cc1cc(N2CCOCC2)nc(-c2cccc(CO)c2)n1`, the IC50 in data set [1] is 0.601 µM; in data set [2] it was 2.05 µM; in [3], 3.4 µM. In data set [4], this compound yielded a fraction unbound of 0.447. The compound also yielded a clearance in data set [5] of 25 mL/min/kg. The compound also registered a bioavailability in [6] of 41%.

As to `CS(=O)(=O)Cc1cc(N2CCOCC2)nc(-c2ccccc2)n1`, the IC50 in data set [1] is 5 µM; in [2] it was more than 1000 µM; in data set [3], more than 30 µM; in data set [7], more than 10 µM. In [4], this compound yielded a fraction unbound of 0.28. Moreover, the clearance in data set [5] is 11 mL/min/kg. Moreover, the bioavailability in data set [6] was 97%. In data set [8], this compound came in with a logD of 1.94.

Take `CS(=O)(=O)Cc1cc(N2CCOCC2)nc(-c2ccc3[nH]cnc3c2)n1`: the IC50 in data set [1] was 0.285 µM; in data set [2], 1.06 µM; in [3] it was 7.2 µM; in [9], more than 32 µM. This compound also displayed a clearance in data set [5] of 37 mL/min/kg. Besides, in [6], the bioavailability amounted to 10%.

`CS(=O)(=O)Cc1cc(N2CCOCC2)nc(-c2cccc3[nH]ccc23)n1`: the IC50 was 1.46 µM in data set [1], 14.3 µM in [2], 6.3 µM in [3] and more than 33 µM in [9]. Further, the fraction unbound in data set [4] was 0.301. In data set [8], this compound gave a logD of 1.7. This compound showed a solubility in data set [10] of 13 µM (≈ 4.84 µg/mL).

Turning to `Cn1ccc2cc(-c3nc(CS(C)(=O)=O)cc(N4CCOCC4)n3)ccc21`, the IC50 was more than 100 µM in data set [1] and more than 24 µM in data set [2].

Take `COCc1cccc(-c2nc(CS(C)(=O)=O)cc(N3CCOCC3)n2)c1`: the IC50 in data set [1] was 22.5 µM; in [2], more than 300 µM.

As to `C[C@@H]1COCCN1c1cc(CS(C)(=O)=O)nc(-c2ccc3[nH]ccc3c2)n1`, the values for the IC50 in data set [2] and in data set [3] were 5.3 µM and 3.1 µM, respectively.

Regarding `C[C@H]1COCCN1c1cc(CS(C)(=O)=O)nc(-c2ccc3[nH]ccc3c2)n1`, the IC50 in data set [2] was found to be 22.9 µM; in data set [3], 1.88 µM. In data set [4], this compound registered a fraction unbound of 0.167. This compound also showed a clearance in data set [5] of 36 mL/min/kg. The compound also gave a bioavailability in data set [6] of 33%. This compound also registered a logD in data set [8] of 2.4. In [10], this compound gave a solubility of 192 µM (≈ 74.2 µg/mL).

As for `CS(=O)(=O)Cc1cc(N2CCOCC2)nc(NC(=O)c2ccno2)n1`, the results for the IC50 in data set [1], in [2] and in data set [3] were 0.037 µM, more than 100 µM and 5.1 µM, respectively. Also, the fraction unbound in data set [4] is 0.32. In data set [8], this compound displayed a logD of 1.74.

As for `O=S(=O)(Cc1cc(N2CCOCC2)nc(-c2ccccn2)n1)c1ccccc1`, the IC50 is 9.2 µM in data set [3], more than 10 µM in [7] and more than 32 µM in [9]. This compound also yielded a clearance in [5] of 32 mL/min/kg. In [6], the bioavailability came to 18%. In [8], this compound gave a logD of 1.34.

As to `CC(C)S(=O)(=O)Cc1cc(N2CCOCC2)nc(-c2ccccn2)n1`, the IC50 is 1.54 µM in [1], 36.7 µM in [2] and more than 30 µM in data set [3].

With `O=S(=O)(CCc1cnccn1)Cc1cc(N2CCOCC2)nc(-c2ccccn2)n1`, the IC50 in data set [1] is 3.16 µM; in data set [2], more than 90 µM; in [3], more than 80 µM. The same compound had a logD in data set [8] of less than 0.5.

Regarding `O=S(=O)(Cc1cc(N2CCOCC2)nc(-c2ccccn2)n1)c1ccc(F)cc1`, the IC50 in data set [1] is 1.38 µM; in [2] it was 7.6 µM; in data set [3] it was 12.4 µM.

For `CS(=O)(=O)Cc1cc(N2CCOCC2)nc(-c2ccc(NS(C)(=O)=O)cc2)n1`, the IC50 in data set [2] was more than 100 µM; in [3], more than 20 µM. In data set [4], this compound gave a fraction unbound of more than 0.66. In data set [5], this compound showed a clearance of 15 mL/min/kg. In addition, the bioavailability in data set [6] was 38%. In addition, in [8], the logD worked out at 0.85. The same compound yielded a solubility in data set [10] of 11 µM (≈ 4.69 µg/mL).

With `CS(=O)(=O)Cc1cc(N2CC3CCC(C2)O3)nc(-c2ccc3[nH]ccc3c2)n1`, the IC50 in data set [1] was 0.252 µM; in data set [2], more than 48 µM; in [3] it was 1.9 µM; in data set [9], more than 32 µM. The fraction unbound in [4] was 0.22. The concentration in solution in data set [10] (solubility) was 1.5 µM (≈ 0.598 µg/mL).

Consider `CS(=O)(=O)Cc1cc(N2CCOCC2)nc(-c2ccc(NC(=O)Nc3ccc(F)cc3)cc2)n1`, for which, in data set [8], the logD is more than 3.2.

As to `CS(=O)(=O)Cc1cc(N2CCOCC2)nc(-c2ccc3[nH]ccc3c2)n1`, the results for the IC50 in [3], in data set [11] and in data set [9] were 5.7 µM, 5 µM and more than 32 µM, respectively. The fraction unbound in data set [4] stood at 0.193. This compound also showed a clearance in [5] of 4 mL/min/kg. In [6], this compound displayed a bioavailability of 3%. In data set [12], the Vd worked out at 0.4 L/kg. The Papp A→B in data set [13] amounted to 37 ×10⁻⁶ cm/s. In addition, the Papp B→A in [14] was found to be 34 ×10⁻⁶ cm/s. The compound further came in with a logD in data set [8] of 2.1. The same compound had a solubility in data set [10] of 6.2 µM (≈ 2.31 µg/mL).

On to `CS(=O)(=O)Cc1cc(N2CCOCC2)nc(-c2cnc3[nH]ccc3c2)n1`, for which the IC50 was 0.262 µM in data set [1], 0.98 µM in data set [2], 1.03 µM in data set [3] and more than 32 µM in data set [9]. Besides, the clearance in data set [5] turned out to be 4 mL/min/kg. In [6], this compound showed a bioavailability of 43%. The solubility in data set [10] turned out to be 48 µM (≈ 17.9 µg/mL).
